The values that follow come from patent US11629146B2, “Substituted [1,2,4]triazolo[4,3-a]pyrazines as modulators of sodium channel activity” (Praxis Precision Medicines, Inc., priority 2016, dated 2023).

Data set [1] has as its target human NaV1.6 (hNaV1.6) (Homo sapiens (Human), UniProt Q9UQD0). The experiment in a line: INaL inhibition at hNaV1.6, PatchXpress electrophysiology. The format is cell-based. Here is the method: Functional characterization of exemplary compounds to modulate INaL expressed by the Nay 1.6 voltage-gated sodium channel was accomplished using the PatchXpress™ high throughput electrophysiology platform (Molecular Devices, Sunnyvale, Calif.). HEK-293 cells expressing recombinant, human NaV1.6 (hNaV1.6) were grown in DMEM/high-glucose Dulbecco's modified, 10% FBS, 2 mM sodium pyruvate, 10 mM HEPES and 400 μg/mL G418. Cells were grown to 50%-80% confluency prior to harvesting. […] The onboard liquid handling facility of the PatchXpress was used for dispensing cells and applying test compounds. Nay late currents were evoked by the application of 300 nM ATX-II. […] INaL amplitude and stability were determined by analyzing the mean current amplitude over the final 20 ms of the test pulse. […] Percent steady-state inhibition of INaL was calculated as: [(INaL_compound)/(INaL_control)]*100, where INaL_compound and INaL_control represent INaL recorded in the presence or absence of compound, respectively.

A short description of data set [2]: PK rat clearance experiment. In kind it is in vivo. The following applies: male Sprague-Dawley rats, single intravenous bolus 0.5 mg/kg, plasma.
Procedure: The IV dosing solution was prepared freshly on the dosing day. Test article (0.5 mg/kg) was prepared in a vehicle, for example, consisting of 5% DMSO/5% solutol/90% water. The concentrations of test article in all dosing solutions were determined by HPLC/UV. Three male Sprague-Dawley rats were used in this study. The animals were confirmed healthy before being assigned to the study. Each animal was given a unique identification number which was marked on the tail or the ear, and written on the cage card. All animals were fasted overnight before dosing and the food was returned at 4 hours post dosing. Water was provided to all animals ad libitum during the fasting period. Animals were weighed prior to dose administration on the day of dosing for calculating the actual dose volume. The body weights were in the range from 212 g to 223 g for males. All animals received test article by single intravenous bolus administration at 0.5 mg/kg. Approximately 0.2 mL blood was collected at each time point via jugular vein from each study animal. […] All blood samples were transferred into pre-labeled plastic micro centrifuge tubes and mixed with the pre-loaded anti-coagulant K2EDTA (5 μL, 0.5 M). Plasma samples were then prepared by centrifuging the blood samples. All plasma samples were then quickly frozen over dry ice and kept at −60° C. or lower until LC/MS/MS analysis. The concentrations of test article in plasma were determined by using a quantitative bioanalytical LC/MS/MS method. The lower limit of quantitation (LLOQ) for test article in plasma was 1 ng/mL, and the upper limit of quantitation (ULOQ) in plasma was 3000 ng/mL. The plasma concentration of test article in rats was subjected to a non compartmental pharmacokinetic analysis by using the Phoenix WinNonlin software (version 6.3, Pharsight, Mountain View, Calif.). The linear/log trapezoidal rule was applied in obtaining the PK parameters.
Data set [3] concerns the target CYP1A2 (Homo sapiens (Human), UniProt P05177). The experiment in a line: CYP1A2 inhibition in human liver microsomes. The format is in vitro ADME. The following applies: pooled human liver microsomes, marker substrate Phenacetin. The procedure: The specific marker metabolites are measured with LC/MS/MS. The remaining enzymatic activities and inhibitory potency IC50 are determined. Microsomes are removed out of the −80° C. freezer to thaw on ice and 20 μL of the substrates solution added to the corresponding wells. […] Then 158 μL of the HLM working solution was added to all wells of the incubation plate. The plate was pre-warmed for about 10 min using a 37° C. water bath. Then 20 μL of the NADPH cofactor solution was added to all incubation wells, mixed and incubated for 10 minutes at 37° C. water bath. The reaction is terminated by adding 400 μL cold stop solution (200 ng/mL Tolbutamide and 200 ng/mL Labetalol in ACN). […] Finally 200 μL of the supernatant was transferred to 100 μL HPLC water, shaken for 10 min and analyzed by LC/MS/MS. […] Equation for three parameters logistic sigmoidal curve: […]
A general note: Liver microsomes are vesicles of endoplasmic reticulum, rich in cytochrome P450 enzymes.

Where [4] appears, read: HEK293, 1 μM, HEK-293 cells expressing hNaV1.6, late current evoked by 300 nM ATX-II, read-out: INaL v1.6 (1 μM, % Inhibition).
Setting [5] is: HEK293, read-out: INaL v1.6 (1 μM, % Inhibition).
Where [6] appears, read: 1 μM, HEK-293 cells expressing hNaV1.6, late current evoked by 300 nM ATX-II.

Broadly, the inhibition is the share of the control response that was lost under treatment. Usually clearance stands for a measure of how efficiently the substance is removed, as volume per time. Read a high clearance as efficient removal. Broadly, the half-life is the time in which the quantity being followed falls by half. Lower therefore signals rapid decline. As a reminder, the IC50 is the concentration that gives 50% inhibition. A high value points to weaker potency.

SMILES strings stand for the structures. Where two headings read alike, the source gives them in different places.

human NaV1.6 (hNaV1.6), sequence (Q9UQD0 whole entry): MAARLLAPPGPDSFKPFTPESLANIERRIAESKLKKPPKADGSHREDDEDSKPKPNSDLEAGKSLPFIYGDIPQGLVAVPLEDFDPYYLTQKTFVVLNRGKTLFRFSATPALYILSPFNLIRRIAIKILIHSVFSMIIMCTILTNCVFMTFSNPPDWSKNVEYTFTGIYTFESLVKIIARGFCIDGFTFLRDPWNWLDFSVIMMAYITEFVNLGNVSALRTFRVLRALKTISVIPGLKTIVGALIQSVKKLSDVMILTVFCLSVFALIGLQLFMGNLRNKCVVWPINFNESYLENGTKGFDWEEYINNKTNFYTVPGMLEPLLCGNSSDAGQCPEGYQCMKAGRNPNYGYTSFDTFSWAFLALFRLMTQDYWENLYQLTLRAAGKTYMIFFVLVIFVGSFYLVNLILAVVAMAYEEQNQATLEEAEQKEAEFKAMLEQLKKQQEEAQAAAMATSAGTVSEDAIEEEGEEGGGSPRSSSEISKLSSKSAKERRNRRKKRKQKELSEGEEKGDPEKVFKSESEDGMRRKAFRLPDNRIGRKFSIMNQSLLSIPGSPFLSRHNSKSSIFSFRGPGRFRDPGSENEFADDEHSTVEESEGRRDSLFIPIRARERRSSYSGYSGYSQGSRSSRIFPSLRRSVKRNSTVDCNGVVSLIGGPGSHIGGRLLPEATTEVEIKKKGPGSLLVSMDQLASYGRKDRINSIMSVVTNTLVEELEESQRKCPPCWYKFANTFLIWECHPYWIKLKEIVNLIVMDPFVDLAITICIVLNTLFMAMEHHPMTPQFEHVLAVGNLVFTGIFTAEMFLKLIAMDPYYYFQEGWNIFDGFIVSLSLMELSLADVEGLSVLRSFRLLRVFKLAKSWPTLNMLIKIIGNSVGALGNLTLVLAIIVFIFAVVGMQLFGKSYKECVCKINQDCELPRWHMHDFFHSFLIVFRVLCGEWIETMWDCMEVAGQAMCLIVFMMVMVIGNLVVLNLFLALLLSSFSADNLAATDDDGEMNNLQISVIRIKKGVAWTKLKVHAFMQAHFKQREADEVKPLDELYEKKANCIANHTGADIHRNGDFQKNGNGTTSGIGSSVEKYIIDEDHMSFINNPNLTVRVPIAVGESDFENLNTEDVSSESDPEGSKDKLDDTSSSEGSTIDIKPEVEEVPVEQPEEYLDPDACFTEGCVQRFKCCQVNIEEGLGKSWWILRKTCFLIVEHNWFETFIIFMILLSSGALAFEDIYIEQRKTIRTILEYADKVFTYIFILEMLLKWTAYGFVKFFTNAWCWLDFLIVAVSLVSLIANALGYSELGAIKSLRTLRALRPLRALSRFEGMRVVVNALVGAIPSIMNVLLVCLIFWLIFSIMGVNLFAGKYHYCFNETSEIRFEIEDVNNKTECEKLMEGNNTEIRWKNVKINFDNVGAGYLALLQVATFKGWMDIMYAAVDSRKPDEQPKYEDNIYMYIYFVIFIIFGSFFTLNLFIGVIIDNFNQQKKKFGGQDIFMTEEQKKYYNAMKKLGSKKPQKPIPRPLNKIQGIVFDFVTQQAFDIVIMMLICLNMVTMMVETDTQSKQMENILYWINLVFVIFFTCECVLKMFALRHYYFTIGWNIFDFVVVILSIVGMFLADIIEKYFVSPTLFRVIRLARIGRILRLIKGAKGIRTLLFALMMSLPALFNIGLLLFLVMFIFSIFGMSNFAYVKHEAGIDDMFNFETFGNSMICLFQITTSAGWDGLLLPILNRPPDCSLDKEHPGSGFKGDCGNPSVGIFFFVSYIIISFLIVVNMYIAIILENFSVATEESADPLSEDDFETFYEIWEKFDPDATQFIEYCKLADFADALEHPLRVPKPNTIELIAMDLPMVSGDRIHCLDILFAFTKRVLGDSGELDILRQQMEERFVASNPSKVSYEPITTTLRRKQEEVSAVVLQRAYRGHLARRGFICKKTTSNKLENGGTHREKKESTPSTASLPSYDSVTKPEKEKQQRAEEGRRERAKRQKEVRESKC
CYP1A2, sequence (P05177 whole entry): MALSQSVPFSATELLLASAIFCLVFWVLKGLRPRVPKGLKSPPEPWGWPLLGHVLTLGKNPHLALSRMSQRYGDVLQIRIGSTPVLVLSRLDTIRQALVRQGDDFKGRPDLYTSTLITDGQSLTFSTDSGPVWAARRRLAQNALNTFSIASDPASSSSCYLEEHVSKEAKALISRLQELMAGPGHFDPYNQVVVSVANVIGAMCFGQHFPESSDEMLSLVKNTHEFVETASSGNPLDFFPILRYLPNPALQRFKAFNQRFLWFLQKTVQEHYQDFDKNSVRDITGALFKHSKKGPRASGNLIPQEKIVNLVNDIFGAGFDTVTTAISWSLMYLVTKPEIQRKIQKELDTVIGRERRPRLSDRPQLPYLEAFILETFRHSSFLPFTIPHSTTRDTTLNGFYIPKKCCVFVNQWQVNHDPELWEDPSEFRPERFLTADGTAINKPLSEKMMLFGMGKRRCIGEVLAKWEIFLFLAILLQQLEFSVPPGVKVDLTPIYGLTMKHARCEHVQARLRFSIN

Turning to `FC(F)(F)Oc1ccc(-c2ccc3nnc(C4(F)CC4)n3n2)cc1` [Compound 61], the inhibition at 1 µM in data set [1] (setting [4]) is above 70%. In data set [2], the clearance came out at 1.6 mL/min/kg and the half-life was 15.2 h.

As for `FC(F)(F)c1nnc2ccc(-c3ccc([C@@H]4CC4(F)F)cc3)nn12` (single isomer, unassigned) [Compound 122], in data set [1] (setting [5]), the inhibition at 1 µM was above 70%. Further, in data set [3], the IC50 is below 1 µM.

`FC(F)(F)Oc1ccc(-c2ccc3nnc(C(F)(F)F)n3n2)cc1` [Compound 108] showed a concentration for half-maximal inhibition (IC50) in data set [3] of 1 to 15 µM.

As to `C[C@H](Oc1ncc(-c2cn3c(C(F)(F)F)nnc3cn2)cc1F)C(F)(F)F` (single isomer, unassigned) [Compound 125], in data set [1] (setting [4]), the inhibition at 1 µM was above 70%. The compound further showed an IC50 in data set [3] above 30 µM.

On to `Cc1cc(OC(F)(F)F)ccc1-c1ccc2nnc(C(F)F)n2n1` [Compound 136], for which the inhibition at 1 µM in data set [1] (setting [4]) is above 70%. Besides, the IC50 in data set [3] was 1 to 15 µM.

For `FC(F)(F)Oc1ccc(-c2ccc3nnc(C[C@H]4CCCCO4)n3n2)cc1` (single isomer, unassigned) [Compound 42], the inhibition at 1 µM in data set [1] (setting [4]) lay in the range of 30 to 70%. Moreover, in data set [3], the IC50 is above 30 µM.

With `FC(F)(F)Oc1ccc(-c2ccc3nnc(C[C@@H]4CCCCO4)n3n2)cc1` (single isomer, unassigned) [Compound 43], the inhibition at 1 µM in data set [1] (setting [4]) fell in the range of 30 to 70%. This compound registered an IC50 in data set [3] above 30 µM.

On to `Cc1cc(C(F)(F)F)ccc1-c1cn2c(C(F)(F)F)nnc2cn1` [Compound 73], for which the inhibition at 1 µM in data set [1] (setting [4]) is 30 to 70%. Moreover, in data set [3], the concentration for half-maximal inhibition (IC50) fell in the range of 1 to 15 µM.

As to `COCc1cc(-c2ccc3nnc(C(F)(F)F)n3n2)ccc1OC(F)(F)F` [Compound 117], the inhibition at 1 µM in data set [1] (setting [4]) is above 70%. Besides, in data set [3], the IC50 lay in the range of 15 to 30 µM.

Take `Fc1cc(-c2cn3c(C(F)(F)F)nnc3cn2)cnc1OCC(F)(F)F` [Compound 78]: the inhibition at 1 µM in data set [1] (setting [4]) was in the range of 30 to 70%. The IC50 in data set [3] was above 30 µM.

As for `FC(F)(F)Oc1ccc(-c2cnc3nnc(C(F)(F)F)n3c2)cc1` [Compound 54], the inhibition at 1 µM in data set [1] (setting [4]) was below 30%.

As to `OCc1cc(-c2ccc(OC(F)(F)F)cc2)nn2c(C(F)(F)F)nnc12` [Compound 186], the inhibition at 1 µM in data set [1] (setting [4]) was below 30%.

Take `N#CC1(c2ccc(-c3ccc4nnc(C(F)(F)F)n4n3)cc2F)CC1` [Compound 104]: in data set [1] (setting [5]), the inhibition at 1 µM was below 30%.

Take `FC(F)c1nnc2cnc(-c3ccc(COC(F)(F)F)cc3)cn12` [Compound 197]: the inhibition at 1 µM in data set [1] (setting [4]) was 30 to 70%.

In the case of `CCOc1ccc(-c2cn3c(C(F)(F)F)nnc3cn2)cc1` [Compound 74], the inhibition at 1 µM in data set [1] (setting [4]) is below 30%.

With `Fc1cc(-c2cn3c(C(F)(F)F)nnc3cn2)cnc1OC1CC(F)(F)C1` [Compound 84], the “INaL v1.6 (1 μM, % Inhibition)” value in data set [1] (setting [6]) is “C (inhibition of greater than 70%)”.

For the compound `NC(=O)c1cc(-c2ccc(OC(F)(F)F)cc2)nn2c(C(F)(F)F)nnc12` [Compound 183], in data set [1] (setting [4]), the inhibition at 1 µM was below 30%.

As for `FC(F)c1nnc2cnc(-c3ccc(OC4CC(F)(F)C4)cc3)cn12` [Compound 178], in data set [1] (setting [4]), the inhibition at 1 µM is 30 to 70%.

For the compound `Cc1cc(-c2ccc(OC(F)(F)F)cc2)nn2c(C(F)(F)F)nnc12` [Compound 139, 8-methyl-6-[4-(trifluoromethoxy)phenyl]-3-(trifluoromethyl)-[1,2,4]triazolo[4,3-b]pyridazine], the inhibition at 1 µM in data set [1] (setting [4]) was below 30%.

As for `COC(C)(C)c1ccc(-c2cn3c(C(F)F)nnc3cn2)cc1` [Compound 51], the inhibition at 1 µM in data set [1] (setting [4]) was below 30%.

For `COc1cc(OC(F)(F)F)ccc1-c1cn2c(C(F)(F)F)nnc2cn1` [Compound 70], the inhibition at 1 µM in data set [1] (setting [4]) lay within 30 to 70%.

In the case of `COCc1ccc(-c2cn3c(C(F)(F)F)nnc3cn2)cc1` [Compound 180], the inhibition at 1 µM in data set [1] (setting [4]) is below 30%.

For `CC(C)(O)c1ccc(-c2ccc3nnc(C(F)(F)F)n3n2)cc1` [Compound 102], the inhibition at 1 µM in data set [1] (setting [4]) was below 30%.

`Fc1cc2nnc(C(F)(F)F)n2nc1-c1ccc(OC(F)(F)F)cc1` [Compound 187]: the inhibition at 1 µM in data set [1] (setting [4]) was above 70%.

Take `FC(F)(F)COc1ccc(-c2ccc3nnc(C(F)(F)F)n3n2)nc1` [Compound 58]: the inhibition at 1 µM in data set [1] (setting [4]) was in the range of 30 to 70%.

For `COCc1cc(-c2cn3c(C(F)(F)F)nnc3cn2)ccc1OC(F)(F)F` [Compound 173], the inhibition at 1 µM in data set [1] (setting [4]) lay within 30 to 70%.

For `COCc1ccc(-c2ccc3nnc(C(F)F)n3n2)cc1` [Compound 171], the inhibition at 1 µM in data set [1] (setting [4]) is below 30%.

On to `FC(F)(F)Oc1ccc(-c2nn3c(C(F)(F)F)nnc3cc2Cl)cc1` [Compound 162, 7-chloro-6-[4-(trifluoromethoxy)phenyl]-3-(trifluoromethyl)-[1,2,4]triazolo[4,3-b]pyridazine], for which the inhibition at 1 µM in data set [1] (setting [4]) is above 70%.

Consider `Fc1cc(-c2cn3c(C(F)(F)F)nnc3cn2)ccc1OC1CC(F)(F)C1` [Compound 194], for which, in data set [1] (setting [4]), the inhibition at 1 µM was 30 to 70%.

Take `N#Cc1cc(C(F)(F)F)ccc1-c1ccc2nnc(C(F)(F)F)n2n1` [Compound 4]: the inhibition at 1 µM in data set [1] (setting [4]) was below 30%.

Regarding `N#CC1(c2ccc(-c3cn4c(C(F)(F)F)nnc4cn3)cc2)CC1` [Compound 67], the inhibition at 1 µM in data set [1] (setting [4]) was below 30%.

`O=C(O)c1cc2nnc(C(F)(F)F)n2nc1-c1ccc(OC(F)(F)F)cc1` [Compound 184, 6-[4-(trifluoromethoxy)phenyl]-3-(trifluoromethyl)-[1,2,4]triazolo[4,3-b]pyridazine-7-carboxylic acid]: the inhibition at 1 µM in data set [1] (setting [4]) was below 30%.

For `FC1(F)CC(Oc2ccc(-c3cn4c(C(F)(F)F)nnc4cn3)cn2)C1` [Compound 86], the inhibition at 1 µM in data set [1] (setting [4]) is 30 to 70%.

`COc1cc(C2(C#N)CC2)ccc1-c1cn2c(C(F)(F)F)nnc2cn1` [Compound 64]: in data set [1] (setting [4]), the inhibition at 1 µM is below 30%.

In the case of `CC(=O)Nc1cc(-c2ccc(OC(F)(F)F)cc2)nn2c(C(F)(F)F)nnc12` [Compound 177], the inhibition at 1 µM in data set [1] (setting [4]) was below 30%.

Consider `FCCc1nnc2cnc(-c3ccc(OC(F)(F)F)cc3)cn12` [Compound 119], for which, in data set [1] (setting [4]), the inhibition at 1 µM was below 30%.

Consider `Cc1ccc(OC(F)(F)F)cc1-c1ccc2nnc(C(F)(F)F)n2n1` [Compound 36], for which the inhibition at 1 µM in data set [1] (setting [4]) was below 30%.

With `Cc1cc(-c2ccc3nnc(C(F)(F)F)n3n2)ccc1C(F)(F)F` [Compound 98], the inhibition at 1 µM in data set [1] (setting [4]) was above 70%.

As to `Nc1cc(-c2ccc(OC(F)(F)F)cc2)nn2c(C(F)(F)F)nnc12` [Compound 176, 6-[4-(trifluoromethoxy)phenyl]-3-(trifluoromethyl)-[1,2,4]triazolo[4,3-b]pyridazin-8-amine], in data set [1] (setting [4]), the inhibition at 1 µM is below 30%.

Take `FC(F)(F)c1nnc2ccc(-c3ccc([C@H]4CC4(F)F)cc3)nn12` [Compound 121, 6-[4-[(1R)-2,2-difluorocyclopropyl]phenyl]-3-(trifluoromethyl)-[1,2,4]triazolo[4,3-b]pyridazine]: in data set [1] (setting [5]), the inhibition at 1 µM is above 70%.

Regarding `CC(=O)Nc1cc2nnc(C(F)(F)F)n2nc1-c1ccc(OC(F)(F)F)cc1` [Compound 191], the inhibition at 1 µM in data set [1] (setting [4]) is below 30%.

For `COCc1cc(-c2cn3c(C(F)F)nnc3cn2)ccc1OC(F)(F)F` [Compound 144], the inhibition at 1 µM in data set [1] (setting [4]) was below 30%.

Take `FC(F)(F)Oc1ccc(-c2cn3c(C4CC4)nnc3cn2)cc1` [Compound 80]: in data set [1] (setting [4]), the inhibition at 1 µM was 30 to 70%.

Turning to `COC(F)(F)c1nnc2cnc(-c3ccc(OC(F)(F)F)cc3)cn12` [Compound 97], in data set [1] (setting [4]), the inhibition at 1 µM was above 70%.

Take `COCc1nc(-c2ccc(OC(F)(F)F)cc2)cn2c(C(F)(F)F)nnc12` [Compound 192]: in data set [1] (setting [4]), the inhibition at 1 µM was below 30%.

As for `C[C@@H](Oc1ncc(-c2cn3c(C(F)F)nnc3cn2)cc1F)C(F)(F)F` [Compound 134], the “INaL v1.6 (1 μM, % Inhibition)” value in data set [1] (setting [6]) is reported as “C (inhibition of greater than 70%)”.

For `COCc1cc(OC(F)(F)F)ccc1-c1cn2c(C(F)F)nnc2cn1` [Compound 142], the inhibition at 1 µM in data set [1] (setting [4]) is above 70%.

For `FC(F)(F)COc1nnc2cnc(-c3ccc(OC(F)(F)F)cc3)cn12` [Compound 150], the inhibition at 1 µM in data set [1] (setting [4]) is below 30%.

Take `FC(F)(F)c1nnc2cnc(-c3ccc([C@H]4CC4(F)F)cc3)cn12` [Compound 151, 6-[4-[(1R)-2,2-difluorocyclopropyl]phenyl]-3-(trifluoromethyl)-[1,2,4]triazolo[4,3-a]pyrazine]: in data set [1] (setting [4]), the inhibition at 1 µM was in the range of 30 to 70%.

For `FC(F)(F)c1ccc(-c2cn3c(C(F)(F)F)nnc3cn2)cc1` [Compound 62], the inhibition at 1 µM in data set [1] (setting [4]) was in the range of 30 to 70%.

As to `FC(F)(F)OCc1ccc(-c2cn3c(C(F)(F)F)nnc3cn2)cc1` [Compound 149], in data set [1] (setting [4]), the inhibition at 1 µM was above 70%.

As to `FC1(F)CC(c2nnc3cnc(-c4ccc(OC(F)(F)F)cc4)cn23)C1` [Compound 82], in data set [1] (setting [4]), the inhibition at 1 µM lay in the range of 30 to 70%.
